Experimental data taken from patent US5055448A, “Linear derivatives of arginine vasopressin antagonists” (Medical College of Ohio, priority 1987, dated 1991).
Numbered stars: 1 amine (or outer) side, 2 acyl side, 3 side chain; on linkers, the order of the positions; unused ones are H or OH. Square brackets hold non-standard residues; d marks the D form. Peptide text beside a SMILES is read from it. * marks the point of attachment. Acetyl(1-adamantyl) = O=C(CC12CC3CC(CC(C3)C1)C2)*; Cyclohexylacetyl(1-SH) = O=C(CC1(S)CCCCC1)*; Ethylenediamine = C(CN[*:2])N[*:1]; Orn = NCCC[C@H](N)C(=O)O; Abu = CC[C@H](N)C(=O)O; X1 = CCC(S)(CC)CC(=O)*; Propionyl = CCC(=O)*

Columns and labels:
[1] = system: antidiuretic response to arginine vasopressin; set-up: species or system rats; conditions: rat, in vivo
Procedure: Activity as antidiuretic agonists was determined by intravenous injection of the compounds being evaluated in ethanol-anesthesized water-loaded rats in accordance with Sawyer, Endocrinology, vol. 63 (1958) at 694. Antagonism of the antidiuretic response to subsequent injections of arginine vasopressin was tested by the method of Sawyer et al., Science, vol. 212 (1981) at 49. Antagonistic potencies were determined and expressed as "effective doses" and pA2 values. The "effective dose" is defined as the dose (in nanomoles per kilogram) that reduces the response seen from 2x units of agonist injected 20 min after the dose of antagonist to the response with 1x units of agonist. Estimated in vivo "pA2 " values represent the negative logarithms of the effective doses, divided by the estimated volume of distribution (67 ml/kg).

[2] = system: vasopressor response to arginine vasopressin; conditions: in vivo
Procedure: Antagonism to the vasopressor response was estimated in accordance with […] et al., J. Med. Chem., vol. 17 (1974) at 969. The values are expressed as pA2 values, defined as in Schild et al., Br. J. Pharmacol., vol. 2 (1947) at 189. Antagonistic potencies were determined and expressed as "effective doses" and pA2 values. The "effective dose" is defined as the dose (in nanomoles per kilogram) that reduces the response seen from 2x units of agonist injected 20 min after the dose of antagonist to the response with 1x units of agonist. Estimated in vivo "pA2 " values represent the negative logarithms of the effective doses, divided by the estimated volume of distribution (67 ml/kg).

SMILES | Antiantidiuretic pA2 [1] | Antivasopressor pA2 [2]
CCOc1ccc(C[C@@H](NC(=O)CC23CC4CC(CC(C4)C2)C3)C(=O)N[C@@H](Cc2ccccc2)C(=O)N[C@H](C(=O)N[C@@H](CC(N)=O)C(=O)N[C@@H](CCCCN)C(=O)N2CCC[C@H]2C(=O)N[C@@H](CCCNC(=N)N)C(N)=O)C(C)C)cc1 [(1-adamantyl)acetyl-D-(O-ethyl)-tyrosyl-phenylalanyl-valyl-asaparaginyl-lysyl-prolyl-argininamide] ({Acetyl(1-adamantyl)}-[dY](Et)FVNKPR-NH2) | 7.81 ± 0.08 | 8.02 ± 0.06
CCOc1ccc(C[C@@H](NC(=O)CC23CC4CC(CC(C4)C2)C3)C(=O)N[C@@H](Cc2ccccc2)C(=O)N[C@H](C(=O)N[C@@H](CC(N)=O)C(=O)N[C@@H](CC)C(=O)N2CCC[C@H]2C(=O)N[C@@H](CCCNC(=N)N)C(N)=O)C(C)C)cc1 [(1-adamantyl)acetyl-D-(O-ethyl)tyrosyl-phenylalanyl-valyl-asparaginyl-(2-amino)butyryl-prolyl-argininamide] ({Acetyl(1-adamantyl)}-[dY](Et)FVN[Abu]PR-NH2) | 7.20 ± 0.04 | 7.43 ± 0.06
CCOc1ccc(C[C@@H](NC(=O)CC23CC4CC(CC(C4)C2)C3)C(=O)N[C@@H](Cc2ccccc2)C(=O)N[C@H](C(=O)N[C@@H](CC(N)=O)C(=O)N[C@@H](CCCNC(=N)N)C(=O)N2CCC[C@H]2C(=O)N[C@@H](CCCNC(=N)N)C(N)=O)C(C)C)cc1 [(1-adamantyl)acetyl-D-(O-ethyl)tyrosyl-phenylalanyl-valyl-asparaginyl-arginyl-prolyl-argininamide] ({Acetyl(1-adamantyl)}-[dY](Et)FVNRPR-NH2) | 7.73 ± 0.08 | 8.01 ± 0.05
CCOc1ccc(C[C@@H](NC(=O)CC23CC4CC(CC(C4)C2)C3)C(=O)N[C@@H](Cc2ccccc2)C(=O)N[C@H](C(=O)N[C@@H](CC(N)=O)C(=O)N[C@@H](CC)C(=O)N2CCC[C@H]2C(=O)N[C@@H](CCCNC(=N)N)C(=O)NCC(N)=O)C(C)C)cc1 [(1-adamantyl)acetyl-D-(O-ethyl)tyrosyl-phenylalanyl-valyl-asparaginyl-(2-amino)butyryl-prolyl-arginyl-glycinamide] ({Acetyl(1-adamantyl)}-[dY](Et)FVN[Abu]PRG-NH2) | 7.50 ± 0.02 | 7.10 ± 0.07
CCOc1ccc(C[C@@H](NC(=O)CC23CC4CC(CC(C4)C2)C3)C(=O)N[C@@H](Cc2ccccc2)C(=O)N[C@H](C(=O)N[C@@H](CC(N)=O)C(=O)N[C@@H](CC)C(=O)N2CCC[C@H]2C(=O)N[C@@H](CCCNC(=N)N)C(=O)N[C@@H](C)C(N)=O)C(C)C)cc1 [(1-adamantyl)acetyl-D-(O-ethyl)tyrosyl-phenylalanyl-valyl-asparaginyl-(2-amino)butyryl-prolyl-arginyl-alaninamide] ({Acetyl(1-adamantyl)}-[dY](Et)FVN[Abu]PRA-NH2) | 6.55 ± 0.04 | 7.18 ± 0.04
CCOc1ccc(C[C@@H](NC(=O)CC)C(=O)N[C@@H](Cc2ccccc2)C(=O)N[C@H](C(=O)N[C@@H](CC(N)=O)C(=O)N[C@@H](CC)C(=O)N2CCC[C@H]2C(=O)N[C@@H](CCCNC(=N)N)C(=O)N[C@@H](CCCNC(=N)N)C(N)=O)C(C)C)cc1 [propionyl-D-(O-ethyl)tyrosyl-phenylalanyl-valyl-asparaginyl-(2-amino)butyryl-prolyl-arginyl-argininamide] (Propionyl-[dY](Et)FVN[Abu]PRR-NH2) | 7.74 ± 0.07 | 6.71 ± 0.09
CCOc1ccc(C[C@@H](NC(=O)CC23CC4CC(CC(C4)C2)C3)C(=O)N[C@@H](Cc2ccccc2)C(=O)N[C@H](C(=O)N[C@@H](CC(N)=O)C(=O)N[C@@H](CC)C(=O)N2CCC[C@H]2C(=O)N[C@H](CCCNC(=N)N)C(=O)N[C@@H](CCCNC(=N)N)C(N)=O)C(C)C)cc1 [(1-adamantyl)acetyl-D-(O-ethyl)tyrosyl-phenylalanyl-valyl-asparaginyl-(2-amino)butyryl-prolyl-D-arginyl-argininamide] ({Acetyl(1-adamantyl)}-[dY](Et)FVN[Abu]P[dR]R-NH2) | 7.85 ± 0.08 | 7.49 ± 0.06
CCOc1ccc(C[C@@H](NC(=O)CC23CC4CC(CC(C4)C2)C3)C(=O)N[C@@H](Cc2ccccc2)C(=O)N[C@H](C(=O)N[C@@H](CC(N)=O)C(=O)N[C@@H](CCCN)C(=O)N2CCC[C@H]2C(=O)N[C@@H](CCCNC(=N)N)C(N)=O)C(C)C)cc1 [(1-adamantyl)acetyl-D-(O-ethyl)tyrosyl-phenylalanyl-valyl-asparaginyl-ornithyl-prolyl-argininamide] ({Acetyl(1-adamantyl)}-[dY](Et)FVN[Orn]PR-NH2) | 7.81 ± 0.10 | 7.33 ± 0.06
CCOc1ccc(C[C@@H](NC(=O)CC23CC4CC(CC(C4)C2)C3)C(=O)N[C@@H](Cc2ccccc2)C(=O)N[C@H](C(=O)N[C@@H](CC(N)=O)C(=O)N[C@@H](CC)C(=O)N2CCC[C@H]2C(=O)N[C@@H](CCCNC(=N)N)C(=O)NCCN)C(C)C)cc1 [(1-adamantyl)acetyl-D-(O-ethyl)tyrosyl-phenylalanyl-valyl-asparaginyl-(2-amino)butyryl-prolyl-arginine-N-(2-aminoethyl)amide] ({Acetyl(1-adamantyl)}-[dY](Et)FVN[Abu]PR-Ethylenediamine) | 7.71 ± 0.09 | 7.33 ± 0.09
CCOc1ccc(C[C@@H](NC(=O)CC(S)(CC)CC)C(=O)N[C@@H](Cc2ccccc2)C(=O)N[C@H](C(=O)N[C@@H](CC(N)=O)C(=O)N[C@@H](CC)C(=O)N2CCC[C@H]2C(=O)N[C@@H](CCCNC(=N)N)C(=O)NCC(N)=O)C(C)C)cc1 [(3-ethyl-3-mercapto)valeroyl-D-(O-ethyl)tyrosyl-phenylalanyl-valyl-asparaginyl-(2-amino)butyryl-prolyl-arginyl-glycinamide] (X1-[dY](Et)FVN[Abu]PRG-NH2) | 7.09 ± 0.09 | 6.94 ± 0.04
CCOc1ccc(C[C@@H](NC(=O)CC23CC4CC(CC(C4)C2)C3)C(=O)N[C@@H](Cc2ccccc2)C(=O)N[C@H](C(=O)N[C@@H](CC(N)=O)C(=O)N[C@@H](CC)C(=O)N2CCC[C@H]2C(=O)N[C@@H](CCCNC(=N)N)C(=O)N[C@@H](CCCNC(=N)N)C(N)=O)C(C)C)cc1 [(1-adamantyl)acetyl-D-(O-ethyl)tyrosyl-phenylalanyl-valyl-asparaginyl-(2-amino)butyryl-prolyl-arginyl-argininamide] ({Acetyl(1-adamantyl)}-[dY](Et)FVN[Abu]PRR-NH2) | 8.11 ± 0.07 | 7.75 ± 0.07
CCOc1ccc(C[C@@H](NC(=O)CC2(S)CCCCC2)C(=O)N[C@@H](Cc2ccccc2)C(=O)N[C@H](C(=O)N[C@@H](CC(N)=O)C(=O)N[C@@H](CS)C(=O)N2CCC[C@H]2C(=O)N[C@@H](CCCNC(=N)N)C(=O)NCC(N)=O)C(C)C)cc1 [(1-mercaptocyclohexyl)acetyl-D-(O-ethyl)tyrosyl-phenylalanyl-valyl-asparaginyl-cysteinyl-prolyl-arginyl-glycinamide] ({Cyclohexylacetyl(1-SH)}-[dY](Et)FVNCPRG-NH2) | 7.05 ± 0.08 | 7.51 ± 0.03
CCOc1ccc(C[C@@H](NC(=O)CC2(S)CCCCC2)C(=O)N[C@@H](Cc2ccccc2)C(=O)N[C@H](C(=O)N[C@@H](CC(N)=O)C(=O)N[C@@H](CC)C(=O)N2CCC[C@H]2C(=O)N[C@@H](CCCNC(=N)N)C(=O)NCC(N)=O)C(C)C)cc1 [(1-mercaptocyclohexyl)acetyl-D-(O-ethyl)tyrosyl-phenylalanyl-valyl-asparaginyl-(2-amino)butyryl-prolyl-arginyl-glycinamide] ({Cyclohexylacetyl(1-SH)}-[dY](Et)FVN[Abu]PRG-NH2) | 7.42 ± 0.05 | 7.71 ± 0.05
